The text below walks through data of article PMC10244169, “Psychedelics promote plasticity by directly binding to BDNF receptor TrkB” (Nature Neuroscience, 2023).

One experiment concerns the target T1, TrkB V437A (Rattus norvegicus, UniProt Q63604, V437A).
T1 construct: expressed in transfected cells; host or cells: HEK293T
The experiment can be described thus: ^3H-LSD saturation binding, TrkB mutant. The protocol:
(§1) Binding assays were performed as previously described with minor modifications. […] Samples from mouse embryo (E18) brains were also lysed, vortexed, sonicated and centrifuged for binding assays. Plates were then washed with PBS. […] For the competition binding assays with biotinylated R,R-HNK, the amino-biotinylation of R,R-HNK was performed using a commercial kit (Thermo Scientific, EZ-Link NHS-PEG4 Biotinylation Kit, 21455) and the reaction monitored by MS. A mixture of biotinylated R,R-HNK (10 µM) and unlabeled compounds (1 pM to 10 µM) in PBS was added to the 96-well plates containing the immunoprecipitated TrkB and incubated for 1 h at room temperature. […] Luminescence was determined via streptavidin conjugated with horseradish peroxidase (HRP; Thermo Fisher Scientific, 21126; 1:5,000, 1 h at room temperature) in reaction with the Pierce ECL substrate (Thermo Fisher Scientific, 32106). Luminescence from blank wells that contained all reagents but the sample lysates was used to determine nonspecific binding. To obtain the binding curves, results from binding assays were fitted to the equation of specific binding with Hill slope from GraphPad Prism 9.2. To calculate koff values, results were fitted to the equation of dissociation of one phase exponential decay from GraphPad Prism 9.2.

A further experiment has as its target T2, TrkB Y433F (Rattus norvegicus, UniProt Q63604, Y433F).
T2 construct: expressed in transfected cells; host or cells: HEK293T
The experiment can be described thus: ^3H-LSD saturation binding, TrkB mutant. The protocol:
as §1

Another experiment concerns the target T3, TrkB:PLCγ1 (Rattus norvegicus, UniProt Q63604).
T3 construct: endogenous in cells; host or cells: rat cortical neuronal cultures (E18, DIV21)
The experiment can be described thus: ELISA of TrkB:PLCγ1 interaction in neuronal cultures. It counts as cell-based. Here is the method:
The phosphorylation of TrkB (pY816) and interaction with PLCγ1 were assessed by enzyme-linked immunosorbent assay (ELISA) as previously described[11],[80],[81] with minor modifications. Briefly, white 96-well plates (PerkinElmer, OptiPlate 96F-HB) were precoated with goat anti-TrkB (R&D systems, AF1494; 1:500, overnight, 4 °C) antibody in carbonate buffer (pH 9.8) and blocked with 3% BSA in PBS with 0.1% Tween-20 (PBS-T) for 2 h at room temperature. […] Samples were incubated overnight at 4 °C, and 24 h later plates were washed with PBS-T and incubated with either rabbit anti-phospho-TrkB(Tyr816) (Cell Signaling Technology, 4168S; 1:2,000), rabbit anti-PLCγ1 (Cell Signaling Technologies, 5690S; 1:2,000) or rabbit anti-Trk (Cell Signaling Technologies, 92991; 1:2,000) antibodies overnight at 4 °C. After washing with PBS-T, plates were incubated with HRP-conjugated goat anti-rabbit (Bio-Rad, 170–5046; 1:5,000, 1 h, room temperature) antibody, followed by more washing with PBS-T. Finally, the chemiluminescent signal was read after brief incubation with Pierce ECL substrate (Thermo Fisher Scientific, 32106). Luminescence from blank wells that contained all reagents but the sample lysates was used to determine background signal.
For orientation: ELISA stands for enzyme-linked immunosorbent assay.

The next experiment relates to BDNF protein. Kind of experiment: BDNF protein ELISA in cortical neurons. It counts as cell-based, rat. To be noted: for BDNF protein, group mean (5g): LSD 100 nM, vehicle 100. Here is the method:
To determine BDNF protein concentrations, ELISA was run as previously described[83] with minor modifications. […] Samples were diluted in Hanks buffer (125 mM NaCl, 5 mM KCl, 1.2 mM NaH2PO4, 1 mM CaCl2, 1.2 mM MgCl2, 1 μM ZnCl2, 10 mM glucose, 25 mM HEPES and 0.25% BSA, pH 7.4). Samples and BDNF standards (10–1,000 pg ml^−1, Peprotech) were acidified at room temperature to pH 3 by adding 1 M HCl and neutralized to pH 7 after 15 min with 1 M NaOH. A Maxisorb Nunc ELISA plate (Thermo Scientific) previously coated with a primary BDNF antibody (1:1,000 in carbonate buffer, overnight, 4 °C) and blocked (2% BSA and 0.1% Triton X-100 in Hanks buffer, 2 h, room temperature). Then, 170 µl of samples and standards were added to the plate with 30 µl of the secondary POD-conjugated BDNF antibody (1:1,000 in 6.66% BSA and 0.66% Triton X-100 in Hanks buffer). The BDNF antibodies were received from Roche and have been previously described. After incubating overnight at 4 °C the plate was washed with PBS-T. BM Blue POD substrate (Roche, 54827-17-1) was added to each well, and the colorimetric reaction was stopped after 20 min by adding 50 µl of 1 M H2SO4. Absorbance was measured at […] with a plate reader (Varioskan Flash, Thermo Scientific).

The next experiment deals with primary visual cortex. Kind of experiment: Ocular dominance plasticity after monocular deprivation. It counts as in vivo, mouse. As to conditions: ext fig 7b.
For the next experiment, the system named is Bdnf mRNA. Kind of experiment: RT–qPCR of Bdnf mRNA in cortical neurons. To be noted: for Bdnf mRNA, group mean (5f): LSD 100 nM. On the technique in general: Quantitative PCR measures a nucleic acid by following its amplification.
A further experiment relates to Ntrk2 mRNA. The experiment can be described thus: RT–qPCR of Ntrk2 mRNA in cortical neurons. As to conditions: after LSD treatment.

The structures appear in SMILES notation.

T1 sequence (Q63604 32-821 V437A): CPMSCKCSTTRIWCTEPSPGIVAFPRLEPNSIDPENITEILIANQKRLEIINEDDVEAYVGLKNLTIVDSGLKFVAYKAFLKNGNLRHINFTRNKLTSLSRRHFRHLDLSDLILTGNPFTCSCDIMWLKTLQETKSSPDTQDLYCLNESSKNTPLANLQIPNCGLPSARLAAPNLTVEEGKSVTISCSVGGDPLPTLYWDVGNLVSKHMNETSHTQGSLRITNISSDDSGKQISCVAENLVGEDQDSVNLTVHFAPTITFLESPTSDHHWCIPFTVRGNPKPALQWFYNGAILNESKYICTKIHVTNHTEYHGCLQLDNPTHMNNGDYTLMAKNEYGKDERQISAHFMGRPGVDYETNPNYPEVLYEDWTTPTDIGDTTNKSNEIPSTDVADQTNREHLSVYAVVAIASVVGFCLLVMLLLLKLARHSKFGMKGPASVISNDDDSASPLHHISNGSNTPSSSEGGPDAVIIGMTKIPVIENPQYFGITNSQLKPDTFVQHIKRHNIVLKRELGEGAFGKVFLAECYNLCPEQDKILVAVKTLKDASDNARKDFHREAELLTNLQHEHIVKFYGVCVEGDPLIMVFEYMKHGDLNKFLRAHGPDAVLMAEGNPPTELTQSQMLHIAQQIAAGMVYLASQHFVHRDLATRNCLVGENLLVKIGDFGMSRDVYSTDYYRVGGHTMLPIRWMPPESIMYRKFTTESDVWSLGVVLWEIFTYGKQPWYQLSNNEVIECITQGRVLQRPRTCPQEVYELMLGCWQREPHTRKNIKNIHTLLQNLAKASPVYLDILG
T2 sequence (Q63604 32-821 Y433F): as the sequence (Q63604 32-821 V437A) above, with Y402F, A406V counted along it
T3 sequence (Q63604 32-821): as the sequence (Q63604 32-821 V437A) above, with A406V counted along it
Protocol for primary visual cortex: Female and male mice were 17 weeks old at the time of monocular deprivation, since the physiological critical period in the binocular region of the visual cortex is closed by then[85]. […] Briefly, mice were injected with an anesthetic mixture containing 0.05 mg kg^−1 fentanyl (Hameln), 5 mg kg^−1 midazolam (Hameln) and 0.5 mg kg^−1 medetomidine (Orion Pharma) diluted in saline. Eyes were protected from drying with eye-protective gel (Alcon), and the head was shaved and fixed in a stereotaxic frame with a heating pad maintained at 37 °C. A mixture of lidocaine and adrenaline (Orion Pharma) was applied locally on the head, and the scalp above the visual cortex was cut. The periosteum was removed gently, and the skull was rapidly cleaned from fat with acetone. The surface of the skull was covered with a thin layer of cyanoacrylate glue (Henkel, Loctite 401), followed by two layers of acryl, obtained by mixing colorless acrylic powder (EUBECOS) with liquid methacrylate (Densply). […] The signal was recorded from one eye at a time, with the other eye covered by a patch. […] The OD score as (C − I)/(C + I) was calculated, and the ocular dominance index (ODI) was determined as the mean of the OD score for all responsive pixels, as described by Cang et al.[89].

As for `CCN(CC)C(=O)C1C=C2c3cccc4[nH]cc(c34)CC2N(C)C1` (centres unmarked) [LSD, lysergic acid diethylamide], the “Bmax (best-fit, 1a)” value is reported as 88.07 on TrkB V437A and 91.95 at TrkB Y433F (Y433F). Besides, the figures for the “h (best-fit, 1a)” value at TrkB V437A and on TrkB Y433F (Y433F) were 1.581 and 1.98, respectively. In addition, the Kd worked out at 25.9 nM on TrkB V437A (Kd (best-fit, 1a), unit inferred); 25.9 ± 10.6 nM on TrkB V437A (Kd, ^3H-LSD saturation); 24.6 nM on TrkB Y433F (Kd (best-fit, 1a), Y433F, unit inferred); 24.6 ± 4.68 nM at TrkB Y433F (Kd, ^3H-LSD saturation, Y433F). Moreover, the LSD binding result at TrkB Y433F (Y433F point mutation) is listed as “impairs LSD binding”. Also, at TrkB:PLCγ1, the “TrkB interaction with PLCγ1” value was “increases TrkB interaction with phospholipase C gamma 1 (PLCγ1)”. Moreover, the “BDNF protein, group mean (5g)” value with BDNF protein (5 min) was 101.1; with BDNF protein (1 h), 105.6; with BDNF protein (24 h), 146.4; with BDNF protein (72 h), 104.8. For the same compound, the BDNF protein levels entry in the experiment on BDNF protein (after LSD treatment) was “elevated at 24 h”. Further, the “Mean ± SEM of column B (IOS II)” value in the experiment on primary visual cortex (IOS II (second imaging session), n=10 mice) was 0.0300 ± 0.02329, n=10. In addition, the “Difference between means (IOS II vs. IOS I)” value in the experiment on primary visual cortex (column B IOS II vs. column A IOS I, unpaired t test) is listed as -0.1640 ± 0.02794. Moreover, the “Bdnf mRNA, group mean (5f)” value is on record as 2.028 in the experiment on Bdnf mRNA (1 h, fold change, 1 h vehicle 1); 0.7739 in the experiment on Bdnf mRNA (24 h); 0.7626 in the experiment on Bdnf mRNA (72 h). Besides, in the experiment on Bdnf mRNA (after LSD treatment), the “Bdnf mRNA” value was “upregulated at 1 h”. Moreover, in the experiment with Bdnf mRNA (vehicle 1.015), the “Bdnf mRNA, predicted (LS) mean over timepoints (5f)” value is listed as 1.188. The “Ntrk2 mRNA levels” value in the experiment on Ntrk2 mRNA is “without any changes in Ntrk2 mRNA levels”.

By Kd is commonly meant the equilibrium constant for the complex coming apart.
